# Read-outs that look alike come from different tables or passages of the source.
# Tests used:
# [1] = test system: T. b. brucei TREU 667; conditions: cited from earlier work
# [2] = mouse, in vivo, po; cited from earlier work
# [3] = test system: T. b. brucei 427; assay: In vitro compound sensitivity assay (resazurin viability); format: cell-based; conditions: T. b. brucei S427; at 10 µM
# From the text: The bloodstream-form T. b. brucei 427 strain was obtained from Dr. K. Stuart (Seattle Biomedical Research Institute, Seattle, WA) and was used for routine assessment of compound sensitivity in vitro. Additional strains used in vitro include T. b. rhodesiense STIB900, isolated in 1992 from a patient in Tanzania, and T. b. gambiense 108R, isolated from a patient in Democratic Republic of Congo in 2005. T. b. brucei EATRO 110 was a generous gift from the late William Trager of the Rockefeller University. T. b. brucei TREU 667 strains were kindly provided by F. W. Jennings at the University of Glasgow. Both T. b. brucei EATRO 110 and TREU 667 were cultured according to previously described conditions and used for in vivo studies.[18], [19]
# T. b. brucei was cultured in complete HMI-9 medium,[20] which contains 10% fetal bovine serum (FBS) (Invitrogen, Carlsbad, CA), 10% Serum Plus medium (SAFC Biosciences, Lenexa, KS), and 100 units/mL penicillin and 0.1 mg/mL streptomycin. The trypanosomes were propagated in T-25 vented cap flasks (Corning Inc., Lowell, MA) at 37°C and 5% CO2 with humidity. To ensure log growth phase, trypanosomes were sub-cultured at appropriate dilutions (typically 1∶100) every 2–3 days in fresh HMI-9 medium. T. b. rhodesiense parasites were grown in MEM medium with Earle's salts supplemented with 15% horse serum. For T. b. gambiense, the MEM medium was supplemented with 5% heat-inactivated fetal calf serum (FCS) and 15% human serum.[21] L929 mouse fibroblast cells (ATCC CCL1, American Type Culture Collection, Rockville, MD) were used to determine parasite versus mammalian cell selectivity. Cells were cultured in Dulbecco's Modified Eagle Medium (DMEM), supplemented with 10% FBS, L-glutamine and 100 units/mL penicillin and 0.1 mg/mL streptomycin. MDCKII-hMDR1 cells were generously provided by P. Borst at the Netherlands Kancer Institute. Cells were cultured in DMEM with Glutamax, 10% (v/v) FBS, and 100 units/mL penicillin and 0.1 mg/mL streptomycin. Cell monolayers were fed with cell culture media 24 h after seeding and used for permeability studies 3 days later.
# (§1) Compounds to be tested were serially diluted in DMSO and added to 96-well plates to give final concentrations ranging from 5 to 0.01 µg/mL. T. b. brucei parasites in the log phase of growth were diluted in HMI-9 media and added to each well for a final concentration of 1×10^4 parasites per well. For the sensitivity assays using T. b. rhodesiense and T. b. gambiense, pararasites were cultured in MEM supplemented with Baltz components (8), diluted in the aforementioned culture media, and added to each well at a density of 1×10^3 cells/well. The final concentration of DMSO was 0.5% and the total volume was 100 µL/well. After a 72 h incubation, resazurin (Sigma-Aldrich, St. Louis, MO) was added to each well [20 µL of 25 mg/100 mL stock in phosphate buffered saline (PBS)] and incubated for an additional 4–6 h.[22] To assess cell viability, fluorescence was quantified using an EnVision Multilabel Plate Reader (Perkin Elmer, Waltham, MA) at an excitation wavelength of 530 nm and emission of 590 nm. Triplicate data points were averaged to generate sigmoidal dose-response curves and determine IC50 values using XLfit curve fitting software from IDBS (Guilford, UK). The IC50 is defined as the amount of compound required to decrease parasite or cell viability by 50% compared to those grown in the absence of the test compound. […]
# [4] = target: T1, CYP1A2 (Homo sapiens, UniProt P05177); assay: P450-Glo cytochrome P450 inhibition; format: biochemical; conditions: human recombinant CYP1A2
# T1 construct: purchased Promega Inc., Madison, WI
# Protocol: (§2) The potential for compound to exert drug-drug interactions that are mediated through inhibition of cytochrome P450 activities was assessed using P450-Glo assay kits (Promega Inc., Madison, WI). Assays for human cytochrome P450 isoforms 3A4, 1A2, 2C9, 2C19, and 2D6 were performed in triplicate according to the manufacturer's instructions over the concentration range 1–100 µM (n = 6 levels). Briefly, SCYX-7158 was added to membrane preparations containing human recombinant CYP450 enzymes together with luminogenic substrates specific to each isoform. Specific CYP450 inhibitors were included as positive controls (ketoconazole, CYP3A4; alpha-napthoflavone, 1A2; sulfaphenazole, CYP2C9; troglitazone, 2C19, and quinidine, CYP2D6). Reactions were initiated by addition of NADPH-regenerating solution and were allowed to incubate for an additional 15–30 min (isoform dependent). Luciferin detection reagent, containing the luciferin-labeled probe substrate, was then added. Luminescence was recorded on an EnVision Multilabel Plate Reader. Calculation of IC50 concentrations for each enzyme was determined using GraphPad Prism (V5.01).
# [5] = target: T2, CYP2C19 (Homo sapiens, UniProt P33261); assay: P450-Glo cytochrome P450 inhibition; format: biochemical; conditions: human recombinant CYP2C19
# T2 construct: purchased Promega Inc., Madison, WI
# Protocol: as §2
# [6] = target: T3, CYP2C9 (Homo sapiens, UniProt P11712); assay: P450-Glo cytochrome P450 inhibition; format: biochemical; conditions: human recombinant CYP2C9
# T3 construct: purchased Promega Inc., Madison, WI
# Protocol: as §2
# [7] = target: T4, CYP2D6 (Homo sapiens, UniProt P10635); assay: P450-Glo cytochrome P450 inhibition; format: biochemical; conditions: human recombinant CYP2D6
# T4 construct: purchased Promega Inc., Madison, WI
# Protocol: as §2
# [8] = target: T5, CYP3A4 (Homo sapiens, UniProt P08684); assay: P450-Glo cytochrome P450 inhibition; format: biochemical; conditions: human recombinant CYP3A4
# T5 construct: purchased Promega Inc., Madison, WI
# Protocol: as §2
# [9] = Pharmacokinetics in uninfected mice; format: in vivo, mouse
# Protocol: (§3) The blood distribution, CNS disposition and pharmacokinetics of SCYX-7158 were evaluated in infected or non-infected rodents following intravenous or oral administration of compounds. Pharmacokinetics and bioavailability of SCYX-7158 were also evaluated in non-infected beagle dogs and cynomolgus monkeys. In-life phases of non-infected rodent studies were performed at Vivisource (Waltham, MA); studies in non-naïve cynomolgus monkeys were performed by SNBL USA (Everett, WA). Male CD-1 mice (∼25 g), male Sprague-Dawley rats (∼225 g), or male cynomolgus monkeys (∼3–5 kg) were administered test article by either bolus intravenous injection (IV) or oral gavage. Animals in the IV groups received a single 2 mg/kg IV dose. Animals received oral doses of test articles as either single or twice daily doses ranging from 8 mg/kg to 50 mg/kg. All doses were administered as clear colorless solutions in either 50% (v/v) PEG 400: 20% (v/v) ethanol: 30% (v/v) carboxymethylcellulose (0.5% w/v in sterile water for injection) or 2% (v/v) ethanol: 5% (w/v) dextrose in sterile water for injection. […] For pharmacokinetic analysis, blood samples were collected from mice via cardiac puncture under terminal anaesthesia. Serial blood samples were collected from rats via a vascular access port located in the lateral saphenous vein. Mice and rats were euthanized in a CO2 chamber before collection of terminal blood samples or brain tissue. Blood samples were collected into polypropylene tubes containing K2EDTA anticoagulant and stored on ice until centrifuged for the preparation of plasma. Plasma was stored at −70°C. Whole brains were collected following decapitation, blotted dry, placed into polypropylene containers and then immediately frozen at approximately −70°C. CSF was collected from rats via cisterna magna puncture, placed in sterile polypropylene tubes, and stored at approximately −70°C. […] Treated samples were gently mixed at room temperature for 10 min, and then centrifuged at approximately 3000×g for 15 min at 15°C. The supernatants were transferred to 96-well plates or HPLC vials for analysis by LC-MS/MS. Pharmacokinetic parameters were calculated from composite mean plasma or tissue data using non-compartmental (oral and intravenous routes) and bi-exponential (intravenous route) analyses in Microsoft Excel.
# [10] = Pharmacokinetics in uninfected rats; format: in vivo, rat
# Protocol: as §3
# [11] = Pharmacokinetics in cynomolgus monkeys; format: in vivo, cynomolgus monkey
# Protocol: as §3
# [12] = Pharmacokinetics in uninfected mice; format: in vivo, mouse; conditions: male, CD-1, mouse; oral dose of 56 mg/kg SCYX-7158, plasma
# [13] = test system: T. b. brucei; assay: Effect of serum on trypanocidal activity; format: cell-based; conditions: 25% mouse serum or 50% bovine serum
# Protocol: as §1
# [14] = test system: GVR35 stage 2 HAT model; conditions: ref R. Brun, personal communication, cited from earlier work
# T4 sequence (P10635 whole entry): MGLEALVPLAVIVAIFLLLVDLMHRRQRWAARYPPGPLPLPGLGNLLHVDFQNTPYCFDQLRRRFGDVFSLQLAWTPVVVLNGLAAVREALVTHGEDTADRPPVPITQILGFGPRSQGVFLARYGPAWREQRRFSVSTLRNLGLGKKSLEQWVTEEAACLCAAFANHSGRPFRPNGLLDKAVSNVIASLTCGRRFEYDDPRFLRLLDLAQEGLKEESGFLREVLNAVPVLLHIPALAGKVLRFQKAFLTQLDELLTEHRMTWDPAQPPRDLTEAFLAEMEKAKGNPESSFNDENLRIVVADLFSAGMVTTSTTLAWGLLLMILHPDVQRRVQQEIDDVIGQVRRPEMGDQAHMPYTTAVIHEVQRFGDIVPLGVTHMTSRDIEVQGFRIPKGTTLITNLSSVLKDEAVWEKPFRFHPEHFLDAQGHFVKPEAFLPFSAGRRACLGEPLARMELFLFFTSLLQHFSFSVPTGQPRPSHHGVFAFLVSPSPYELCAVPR
# T5 sequence (P08684 whole entry): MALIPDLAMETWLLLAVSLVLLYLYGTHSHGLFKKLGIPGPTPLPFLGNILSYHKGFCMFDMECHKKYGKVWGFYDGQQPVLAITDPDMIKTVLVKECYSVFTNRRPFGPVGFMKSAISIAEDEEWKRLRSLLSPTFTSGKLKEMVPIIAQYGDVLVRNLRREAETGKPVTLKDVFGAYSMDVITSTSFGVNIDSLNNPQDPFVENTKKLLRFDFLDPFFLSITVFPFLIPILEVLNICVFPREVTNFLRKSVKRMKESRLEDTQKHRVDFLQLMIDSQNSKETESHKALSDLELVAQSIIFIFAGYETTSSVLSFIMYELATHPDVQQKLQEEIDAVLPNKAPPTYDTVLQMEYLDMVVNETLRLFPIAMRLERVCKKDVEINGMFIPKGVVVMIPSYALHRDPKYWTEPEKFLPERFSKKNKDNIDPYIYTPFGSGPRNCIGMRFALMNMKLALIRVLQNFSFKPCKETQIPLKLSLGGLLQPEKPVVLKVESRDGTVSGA
# T3 sequence (P11712 whole entry): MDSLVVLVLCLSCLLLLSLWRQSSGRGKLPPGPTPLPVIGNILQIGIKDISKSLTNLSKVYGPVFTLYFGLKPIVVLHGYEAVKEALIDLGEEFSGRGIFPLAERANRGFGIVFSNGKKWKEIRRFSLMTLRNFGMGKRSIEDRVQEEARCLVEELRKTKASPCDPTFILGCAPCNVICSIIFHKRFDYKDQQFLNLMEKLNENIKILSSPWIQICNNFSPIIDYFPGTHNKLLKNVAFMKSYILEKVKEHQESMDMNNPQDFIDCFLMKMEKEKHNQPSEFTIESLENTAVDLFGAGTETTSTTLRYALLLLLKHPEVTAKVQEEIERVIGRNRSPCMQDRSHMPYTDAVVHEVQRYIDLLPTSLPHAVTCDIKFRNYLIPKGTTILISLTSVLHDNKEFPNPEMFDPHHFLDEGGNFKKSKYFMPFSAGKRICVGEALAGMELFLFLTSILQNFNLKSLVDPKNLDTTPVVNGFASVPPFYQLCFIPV
# T2 sequence (P33261 whole entry): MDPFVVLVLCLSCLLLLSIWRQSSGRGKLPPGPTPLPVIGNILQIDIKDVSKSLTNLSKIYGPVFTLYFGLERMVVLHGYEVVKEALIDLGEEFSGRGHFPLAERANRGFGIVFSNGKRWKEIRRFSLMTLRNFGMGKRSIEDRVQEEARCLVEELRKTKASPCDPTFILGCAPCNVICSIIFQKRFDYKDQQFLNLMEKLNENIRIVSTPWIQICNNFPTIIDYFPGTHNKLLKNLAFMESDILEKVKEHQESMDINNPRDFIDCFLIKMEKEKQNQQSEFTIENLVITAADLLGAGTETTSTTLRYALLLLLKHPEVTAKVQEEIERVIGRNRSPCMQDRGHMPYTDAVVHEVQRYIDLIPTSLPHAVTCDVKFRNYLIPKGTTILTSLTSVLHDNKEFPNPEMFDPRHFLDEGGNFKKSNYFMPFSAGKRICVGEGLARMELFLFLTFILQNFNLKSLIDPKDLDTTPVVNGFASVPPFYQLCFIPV
# T1 sequence (P05177 whole entry): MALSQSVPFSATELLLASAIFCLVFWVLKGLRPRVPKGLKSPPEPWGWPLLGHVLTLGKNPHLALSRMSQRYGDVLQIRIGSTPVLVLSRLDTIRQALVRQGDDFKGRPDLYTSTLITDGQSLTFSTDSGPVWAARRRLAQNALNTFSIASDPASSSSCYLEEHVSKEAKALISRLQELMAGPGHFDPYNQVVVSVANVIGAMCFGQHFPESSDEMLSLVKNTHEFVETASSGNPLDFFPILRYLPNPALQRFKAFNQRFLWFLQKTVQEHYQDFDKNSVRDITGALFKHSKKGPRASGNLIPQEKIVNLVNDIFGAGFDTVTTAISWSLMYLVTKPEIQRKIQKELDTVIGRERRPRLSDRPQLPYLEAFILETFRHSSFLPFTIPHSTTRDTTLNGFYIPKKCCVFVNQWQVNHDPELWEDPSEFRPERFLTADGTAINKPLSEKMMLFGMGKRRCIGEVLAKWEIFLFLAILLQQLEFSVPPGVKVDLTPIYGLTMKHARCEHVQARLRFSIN
compound,measurement,setting,value
"O=C(Nc1ccc2c(c1)B(O)OC2)c1ccc(F)cc1C(F)(F)F [SCYX-6759, 4-fluoro-N-(1-hydroxy-1,3-dihydrobenzo[c][1], [2]oxaborol-6-yl)-2-trifluoromethylbenzamide]",efficacy in stage 2 mouse model,[1]; 50 mg/kg twice-daily intraperitoneal (100 mg/kg/day) for 14 days,fully efficacious
same,efficacy in stage 2 mouse model,[1]; 50 mg/kg twice-daily oral for 7 days,only partial efficacy
same,efficacy in stage 2 mouse model,[1]; lower doses or once-daily paradigm,not active
same,time post-dose at which brain concentrations fell below the MIC,[2],approximately 12 h
CC(C)(O)c1ccc(NC(=O)c2ccc(F)cc2C(F)(F)F)cc1O [SCYX-3109],inhibition of parasite growth,[3],inactive
same,IC50,[4],> 100 µM
same,IC50,[5],> 100 µM
same,IC50,[6],> 100 µM
same,IC50,[7],> 100 µM
same,IC50,[8],7.5 µM
same,metabolite plasma concentration as % of the SCYX-7158 concentration,"[9]; oral dose of 56 mg/kg SCYX-7158, all time points",approximately 1%
same,Cmax,"[10]; male, Sprague-Dawley, rat, oral dose of 10 mg/kg SCYX-7158, plasma, read-out: Cmax",0.5 µg/mL
same,metabolite plasma concentration as % of the SCYX-7158 concentration,"[10]; oral dose of 10 mg/kg SCYX-7158, each time point",3-5%
same,metabolite plasma concentration as % of the SCYX-7158 concentration,"[11]; 10 mg/kg NG group, all time points",approximately 1%
same,AUC(0-inf),"[11]; male, cynomolgus monkey, oral, 10 mg/kg SCYX-7158 NG, plasma",6.4 µg·h/mL
same,Cmax,"[11]; male, cynomolgus monkey, oral, 10 mg/kg SCYX-7158 nasogastric (NG), plasma",0.14 µg/mL
same,Cmax,[12],0.27 µg/mL
OB(O)O [boric acid],estimated maximum concentration of boric acid,"[9]; not measured, mice, 56 mg/kg oral SCYX-7158",0.05 µg/mL
same,estimated maximum concentration of boric acid,"[10]; not measured, rats, 10 mg/kg oral SCYX-7158",0.09 µg/mL
same,estimated maximum concentration of boric acid (borate),"[11]; not measured, equimolar to SCYX-3109, 10 mg/kg NG SCYX-7158",≤ 0.02 µg/mL
"N=C(N)c1ccc(/N=N/Nc2ccc(C(=N)N)cc2)cc1 [berenil, diminazene, reference compound]",outcome in stage 2 model,[1]; single 10 mg/kg i.p. on day 4 after infection (positive control),cured
same,outcome in stage 2 model,[1]; single 10 mg/kg i.p. on day 21 after infection (negative control),do not sustain cures
same,time of re-infection of the hemolymphatic system (recrudescence),[1]; treated 21 days after infection,35–42 days after infection
"Cc1ccc(C(=O)Nc2ccc(S(=O)(=O)O)c3cc(S(=O)(=O)O)cc(S(=O)(=O)O)c23)cc1NC(=O)c1cccc(NC(=O)Nc2cccc(C(=O)Nc3cc(C(=O)Nc4ccc(S(=O)(=O)O)c5cc(S(=O)(=O)O)cc(S(=O)(=O)O)c45)ccc3C)c2)c1 [suramin, reference compound]",attenuation of in vitro IC50,[13],greater than 25 fold
Nc1nc(N)nc(Nc2ccc([As]3SCC(CO)S3)cc2)n1 (centres unmarked) [melarsoprol],toxicity to mice,[14]; 20 mg/kg QD x 5 days,toxic
same,dose needed to effect cure,[14]; QD × 5 days,10 to 15 mg/kg
